Where two headings read alike, the source gives them in different places.
Legend:
sodium channel = experiment: veratrine-evoked uptake of [14C]guanidine into rat forebrain synaptosomes ([14C]guanidine flux); assay type: biochemical; conditions: for Hill (uptake of [14C]guanidine): slope
Experimental: The screening strategy is designed to select compounds with appropriate sodium channel blocking activity and low side effect liability. To this end all compounds are processed through the primary sodium channel assay (veratrine-evoked uptake of [^14C]guanidine into rat forebrain synaptosomes) and IC50 values computed from generated concentration-effect curves.
Synaptosomes (heavy and light mitochondrial fraction containing synaptosomes) were prepared by transferring the forebrain (of known wet weight) to a glass Potter vessel to which 9 volumes ice-cold 0.25M sucrose had been added and homogenising, using a teflon pestle, by 8 ‘up and down strokes’ of a Braun Potter S motor driven homogeniser set to 900 rpm. The resulting homogenate was centrifuged at 1036×g at 4° for 10 min and the supernatant collected. The remaining pellet was resuspended, as above, in fresh ice-cold 0.25M sucrose and the centrifugation step repeated. The supernatant fractions were pooled and centrifuged at 40,000×g (average) at 4° for 15 min and the resulting pellet resuspended in the appropriate assay buffer at a concentration of 20-25 mg wet weight per ml appropriate assay buffer.
Both assays were carried out using 14 ml polypropylene test tubes to which a range of concentrations of the compounds under test were added.
Compounds under test were pre-incubated for 10 min at 30° in incubation buffer (50 mM pH 7.4 HEPES (adjusted to pH 7.4 with Tris base), 130 mM choline chloride, 5.5 mM D-glucose, 0.8 mm MgSO4 and 5 mM KCl) containing 7.5 mg original wet weight of tissue and 100 μg veratrine HCl in a final volume of 0.5 ml. […] A further 2×5 ml of ice-cold wash buffer was added to each tube and the vacuum filtration step repeated. The GF/C glass fibre filters were transferred to minivials and 4 ml Picofluor^40 liquid scintillant added using a Brandel™ deposit/dispense system. Radioactivity was measured using a Beckman Liquid Scintillation Counter.
(§1) Data are presented as mean±sem of number of experiments indicated in brackets.

[1] = biological target: T1, DiHydroFolate Reductase (DHFR) (Rattus norvegicus, UniProt Q920D2); experiment: inhibition of binding of [3H]methotrexate to rat liver homogenate supernatant; conditions: for IC50: rat liver supernatant; for inhibition at 495 µM: assay concentration 495 μM; for inhibition at 20 µM: assay concentration 20 μM
T1 construct: from tissue; host or cells: rat liver homogenate supernatant (47,500 x g)
T1 sequence (Q920D2 1-187): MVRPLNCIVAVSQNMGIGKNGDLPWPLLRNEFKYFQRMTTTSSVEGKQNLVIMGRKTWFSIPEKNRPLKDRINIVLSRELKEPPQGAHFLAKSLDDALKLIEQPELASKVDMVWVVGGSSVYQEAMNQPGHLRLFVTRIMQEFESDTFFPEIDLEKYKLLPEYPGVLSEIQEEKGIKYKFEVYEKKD
Experimental: All steps were carried out at 4° (or on ice). Freshly dissected rat liver was dissected into 0.25M ice-cold Sucrose and subsequently homogenised (U-turrax) in 50 mM pH 6.0 phosphate buffer (10 ml/g tissue) containing 15 mM Dithiothreitol. The resulting homogenate was centrifuged @ 47,500×g for 20 min and supernatant (filtered through cotton wool to remove fatty lumps) stored @-80° before use (Rothenberg et al).
The binding reaction was stopped by the addition of 50 μl of a charcoal suspension (consisting of charcoal, Bovine Serum Albumin and Dextran present in a weight ratio of 100:4:1 suspended in 50 mM pH 6.0 phosphate buffer. Samples were vortexed, allowed to stand for 2 minutes and charcoal was precipitated by microcentrifugation @ full speed for 5 min. Aliquots of clear supernatant were transferred to counting vials containing liquid scintillant for measurement of radioactivity using Liquid Scintillation Spectroscopy.
Percentage inhibition values were calculated by comparison to this value.
as §1

[2] = Table 3, rat forebrain synaptosomes, read-out: [14C]guanidine flux Mean (IC50: μM)
[3] = Table 8, read-out: IC50 (μM) (uptake of [14C]guanidine)
[4] = read-out: [3H]methotrexate binding Inhibition (% @ assay conc'n)
[5] = read-out: [3H]methotrexate binding Inhibition (% @ assay conc'n), assay concentration 99 μM

Structure (SMILES): N=c1nc(N)c(-c2cccc(Cl)c2Cl)nn1Cc1ccccc1Cl [Example 22, 5(3)-Amino-6-(2,3-dichlorophenyl)-2,3(2,5)-dihydro-3(5)-imino-2-(2-chloro)phenylmethyl-1,2,4-triazine]
- IC50 (sodium channel; [2]): 4.6 µM

Structure (SMILES): Nc1nnc(-c2ccc(Cl)cc2Cl)c(N)n1 [Example 44, 3,5-Diamino-6-(2,4-dichlorophenyl)-1,2,4-triazine]
- IC50 [1]: 105 µM
- IC50 (sodium channel; [2]): 603 µM

Structure (SMILES): N=c1nc(N)c(-c2cccc(Cl)c2Cl)nn1CCF [Example 52, 5(3)-Amino-6-(2,3-dichlorophenyl)-2,3(2,5)-dihydro-3(5)-imino-2-(2-fluoroethyl)-1,2,4-triazine methanesulfonate]
- pIC50 (uptake of [14C]guanidine) (sodium channel; Table 8): 5.00 ± 0.08
- IC50 (sodium channel; [3]): 10 µM
- Hill (uptake of [14C]guanidine) (sodium channel; Table 8): 0.74

Structure (SMILES): CCn1nc(-c2ccccc2)c(N)nc1=N [Example 47, 5(3)-Amino-6-phenyl-2,3(2,5)-dihydro-3(5)-imino-2-ethyl-1,2,4-triazine methanesulfonate]
- inhibition at 495 µM [1, 4]: 1%
- IC50 (sodium channel; [2]): 676 µM

Structure (SMILES): N=c1nc(N)c(-c2cccc(Cl)c2Cl)nn1Cc1ccc(Cl)cc1 [Example 21, 5(3)-Amino-6-(2,3-dichlorophenyl)-2,3(2,5)-dihydro-3(5)-imino-2-(4-chloro)phenylmethyl-1,2,4-triazine]
- [3H]methotrexate binding Inhibition (% @ assay conc'n) ([1]; assay concentration 10 μM): −4%
- [3H]methotrexate binding Inhibition (% @ assay conc'n) ([1]; assay concentration 95 μM): −4%
- IC50 (sodium channel; [2]): 6.5 µM

Structure (SMILES): Cc1ccc(Cn2nc(-c3cccc(Cl)c3Cl)c(N)nc2=N)cc1 [Example 12, 5(3)-Amino-6-(2,3-dichlorophenyl)-2,3(2,5)-dihydro-3(5)-imino-2-(4-methyl)phenylmethyl-1,2,4-triazine]
- inhibition at 20 µM [1, 4]: -2%
- inhibition at 99 µM [1, 5]: -3%
- IC50 (sodium channel; [2]): 4.1 µM

Structure (SMILES): N=c1nc(N)c(-c2cc(Cl)cc(Cl)c2Cl)nn1CCC(F)(F)F [Example 56, 5(3)-Amino-6-(2,3,5-trichlorophenyl)-2,3(2,5)-dihydro-3(5)-imino-2-(3,3,3-trifluoropropyl)-1,2,4-triazine methanesulfonate]
- pIC50 (uptake of [14C]guanidine) (sodium channel; Table 8): 2.90 ± 0.20
- IC50 (sodium channel; [3]): 1260 µM
- Hill (uptake of [14C]guanidine) (sodium channel; Table 8): 0.83

Structure (SMILES): N=c1nc(N)c(-c2cccc(Cl)c2Cl)nn1Cc1ccc(C(N)=O)cc1 [Example 27, 4-{[5(3)-Amino-6-(2,3-dichlorophenyl)-2,3-dihydro-3(5)-imino-1,2,4-triazin-2-yl]methyl}benzamide or 5(3)-Amino-6-(2,3-dichlorophenyl)-2,3(2,5)-dihydro-3(5)-imino-2-(3-carboxamido)phenylmethyl-1,2,4-triazine]
- IC50 (sodium channel; [2]): 234 µM

Structure (SMILES): N=c1nc(N)c(-c2cccc(Cl)c2Cl)nn1CC(N)=O [Example 11]
- inhibition at 20 µM [1, 4]: -3%
- inhibition at 99 µM [1, 5]: -3%
- IC50 (sodium channel; [2]): > 100 µM

Structure (SMILES): N=c1nc(N)c(-c2cccc(Cl)c2Cl)nn1Cc1ccc(CO)cc1 [Example 28, 4-{[5(3)-Amino-6-(2,3-dichlorophenyl)-2,3-dihydro-3(5)-imino-1,2,4-triazin-2-yl]methyl}phenylmethanol or 5(3)-Amino-6-(2,3-dichlorophenyl)-2,3(2,5)-dihydro-3(5)-imino-2-(4-hydroxymethyl)phenylmethyl-1,2,4-triazine]
- IC50 (sodium channel; [2]): 49 µM

Structure (SMILES): Nc1nnc(-c2cccc(Cl)c2F)c(N)n1 [Example 35]
- IC50 [1]: 81.3 µM
- IC50 (sodium channel; [2]): 490 µM

Structure (SMILES): Cn1nc(-c2cc(Cl)cc(Cl)c2)c(N)nc1=N [Example 53, 5(3)-Amino-6-(3,5-dichlorophenyl)-2,3(2,5)-dihydro-3(5)-imino-2-methyl-1,2,4-triazine methanesulfonate]
- pIC50 (uptake of [14C]guanidine) (sodium channel; Table 8): 4.34 ± 0.16
- IC50 (sodium channel; [3]): 45.7 µM
- Hill (uptake of [14C]guanidine) (sodium channel; Table 8): 0.73

Structure (SMILES): CC(C)(C)OC(=O)N1CCC(Cn2nc(-c3cccc(Cl)c3Cl)c(N)nc2=N)CC1 [Example 37, 1,1-Dimethylethyl 4-[5(3)-Amino-6-(2,3-dichlorophenyl)-2,3(2,5)-dihydro-3(5)-imino-1,2,4-triazin-2-ylmethyl]piperidine-1-carboxylate or 5(3)-Amino-6-(2,3-dichlorophenyl)-2,3(2,5)-dihydro-3(5)-imino-2-(Bocpiperidin-4-yl)methyl-1,2,4-triazine]
- IC50 [1]: > 300 µM
- IC50 (sodium channel; [2]): 12.9 µM

Structure (SMILES): Cn1nc(-c2cc(Cl)ccc2Cl)c(N)nc1=N [Example 48, 5(3)-Amino-6-(2,5-dichlorophenyl)-2,3(2,5)-dihydro-3(5)-imino-2-methyl-1,2,4-triazine methanesulfonate]
- IC50 [1]: 251 µM
- IC50 (sodium channel; [2]): 28.2 µM

Structure (SMILES): Nc1nnc(-c2cccc(F)c2F)c(N)n1 [Example 33, 6-(2,3-difluorophenyl)-1,2,4-triazine-3,5-diamine]
- IC50 [1]: 442 ± 5.1 µM
- IC50 (sodium channel; [2]): > 300 µM

Structure (SMILES): Cn1nc(-c2ccc(Cl)cc2Cl)c(N)nc1=N [Example 45, 5(3)-Amino-6-(2,4-dichlorophenyl)-2,3(2,5)-dihydro-3(5)-imino-2-methyl-1,2,4-triazine methanesulfonate]
- inhibition at 495 µM [1, 4]: -1%
- IC50 (sodium channel; [2]): 87.1 µM

Structure (SMILES): CCn1nc(-c2cc(Cl)cc(Cl)c2)c(N)nc1=N [Example 54, 5(3)-Amino-6-(3,5-dichlorophenyl)-2,3(2,5)-dihydro-3(5)-imino-2-ethyl-1,2,4-triazine methanesulfonate]
- pIC50 (uptake of [14C]guanidine) (sodium channel; Table 8): 4.73 ± 0.11
- IC50 (sodium channel; [3]): 18.6 µM
- Hill (uptake of [14C]guanidine) (sodium channel; Table 8): 0.76

Structure (SMILES): N=c1nc(N)c(-c2cccc(Cl)c2Cl)nn1Cc1cccc(C(F)(F)F)c1F [Example 26, 5(3)-Amino-6-(2,3-dichlorophenyl)-2,3(2,5)-dihydro-3(5)-imino-2-(2-fluoro-3-trifluoromethyl)phenylmethyl-1,2,4-triazine]
- IC50 (sodium channel; [2]): 5.3 µM

Structure (SMILES): Cn1nc(-c2ccccc2)c(N)nc1=N [Example 46, 5(3)-Amino-6-phenyl-2,3(2,5)-dihydro-3(5)-imino-2-methyl-1,2,4-triazine methanesulfonate]
- IC50 [1]: 288 µM
- IC50 (sodium channel; [2]): 2290 µM

Structure (SMILES): Nc1nnc(-c2ccccc2)c(N)n1 [Example 43, 3,5-Diamino-6-phenyl-1,2,4-triazine]
- inhibition at 50 µM ([1]; read-out: [3H]methotrexate binding Inhibition (% @ assay conc'n), assay concentration 50 μM): 82%
- IC50 (sodium channel; [2]): > 500 µM

Structure (SMILES): CCn1nc(-c2cc(Cl)ccc2Cl)c(N)nc1=N [Example 49, 5(3)-Amino-6-(2,5-dichlorophenyl)-2,3(2,5)-dihydro-3(5)-imino-2-ethyl-1,2,4-triazine methanesulfonate]
- IC50 [1]: 95 µM
- IC50 (sodium channel; [2]): 20.9 µM

Structure (SMILES): N=c1nc(N)c(-c2cccc(Cl)c2Cl)nn1Cc1ccc(C(F)(F)F)cc1 [Example 25, 5(3)-Amino-6-(2,3-dichlorophenyl)-2,3(2,5)-dihydro-3(5)-imino-2-(4-trifluoromethyl)phenylmethyl-1,2,4-triazine]
- IC50 (sodium channel; [2]): 6.2 µM

Structure (SMILES): N=c1nc(N)c(-c2cccc(Cl)c2Cl)nn1Cc1ccc(F)cc1 [Example 16, 5(3)-Amino-6-(2,3-dichlorophenyl)-2,3(2,5)-dihydro-3(5)-imino-2-(4-fluoro)phenylmethyl-1,2,4-triazine]
- inhibition at 10 µM ([1]; read-out: [3H]methotrexate binding Inhibition (% @ assay conc'n), assay concentration 10 μM): -3%
- inhibition at 99 µM [1, 5]: -3%
- IC50 (sodium channel; [2]): 5.1 µM

Structure (SMILES): N=c1nc(N)c(-c2cc(Cl)cc(Cl)c2Cl)nn1CCF [Example 55, 5(3)-Amino-6-(2,3,5-trichlorophenyl)-2,3(2,5)-dihydro-3(5)-imino-2-(2-fluoroethyl)-1,2,4-triazine methanesulfonate]
- pIC50 (uptake of [14C]guanidine) (sodium channel; Table 8): 5.20 ± 0.05
- IC50 (sodium channel; [3]): 6.31 µM
- Hill (uptake of [14C]guanidine) (sodium channel; Table 8): 0.79

Structure (SMILES): N=c1nc(N)c(-c2cccc(Cl)c2Cl)nn1Cc1cccc(Cl)c1 [Example 20, 5(3)-Amino-6-(2,3-dichlorophenyl)-2,3(2,5)-dihydro-3(5)-imino-2-(3-chloro)phenylmethyl-1,2,4-triazine]
- [3H]methotrexate binding Inhibition (% @ assay conc'n) ([1]; assay concentration 9 μM): −4%
- [3H]methotrexate binding Inhibition (% @ assay conc'n) ([1]; assay concentration 99 μM): −7%
- IC50 (sodium channel; [2]): 3.5 µM

From patent US8268823B2, “Medical use of triazine derivatives” (University of Greenwich, priority 2006, dated 2012)
